From patent US12653181B2, “Control of ripening and senescence in pre-harvest and post-harvest plants and plant materials by manipulating alternative oxidase activity” (Washington State University, priority 2012, dated 2026)
“Also recorded” adds a separate entry of the source.

What was measured:
[1] = test system: Wild type tomatoes (var. 'Ailsa Craig'); assay: Ripening (visual pigmentation) of wild type mature green tomato fruit; format: in vivo; settings: for ripening response (pigmentation green to red) versus deionized water control: treated or injected with 1 mL of 2% solution, 7 days
Bartlett pears = assay: Ethylene and CO2 evolution of 1-MCP treated Bartlett pears in air-tight chambers (GC-FID, gas analyzer); format: in vivo, Pyrus communis
Protocol: Thereafter, each experimental group of fruit was placed in a separate air-tight chamber connected to a gas chromatography (GC) instrument configured to draw samples every 8 hours over the course of 5 days, to measure ethylene via a flame ionizing detector (FID), and to measure CO2 via a gas analyzer. The experiment was performed with 4 pears per chamber in 3 replicates per experimental group. Monitoring was performed to detect minor variation in air flow rates in all experimental chambers used and detected variations were accounted for in subsequent calculations.

Haas avocado = assay: Avocado fruit flesh firmness after atomized GLA exposure (penetrometer); format: in vivo; settings: for percentage of terminal ripened firmness achieved: 3% GLA 16 hours
Protocol: (§1) Fruits: Avocado and Mango fruits were purchased from Pullman Walmart and half were immediately placed in separate chambers for administration of glyoxylic acid, half were left on the bench top at 20° C.
(§2) GLA treatment: Humidification via sonication was accomplished by administering 1 liter of 3% (m/V) glyoxylic acid (GLA) solution in deionized water into the reservoir of a Crane humidifier model EE-5301. Atomized GLA solution was directed via surgical tubing from the humidifier into a custom acrylic chamber measuring approximately 40×60×60 cm containing 12 pears per treatment for 16 hours. Fruits were elevated from the chamber floor on metal baking racks to allow for exposure to GLA on all faces. One (1) 1 cm diameter port allowed for gas exchange between the atmosphere and chamber. A thick cloud of atomized GLA solution was visible in each chamber for the duration of each experimental exposure time. All experiments were conducted at 20° C.
(§3) Firmness measurements: Fruit firmness was measured via FTA penetrometer (GUSS Manufacturing, Norfolk, VA) at three equidistant locations around the middle of each fruit. Therefore, one biological replicate yielded three technical replicates. For each penetrometer measurement, approximately 2 cm^2 of fruit epidermal tissue was removed with a fruit peeler. Firmness measurements were taken at the locations on the fruit where epidermal tissue was removed. Firmness measurements were taken from three biological replicates per treatment at 1, 3, 5 and 7 days post treatment (DPT).
Firmness normalization: Firmness measurements were normalized to account for variability in starting fruit flesh firmness. At the start of each experiment, three untreated fruits were selected, and three fruit flesh measurements were taken from each and averaged. Firmness measurements from each exposure time treatment are reported as a percentage of the starting fruit flesh firmness average.

[2] = test system: Non-MCP treated D'Anjou pears; assay: Flesh firmness of non-MCP treated D'Anjou pears after atomized GLA exposure (penetrometer); format: in vivo, pear; settings: 3% GLA, various exposure times, 1, 3, 5, 7 days post exposure
Protocol: Pear fruit: Non-MCP treated D'Anjou pears picked on Oct. 4, 2019 were obtained from Blue Bird packing house (Blue Bird Inc., Wenatchee Washington) and stored at 1° C. until use.
as §2, with “GLA” for “(m/V) glyoxylic acid (GLA)”, “solution” for “solution in deionized water”, “treatment. Pears” for “treatment for 16 hours. Fruits”
as §3, with “Firmness measurements were taken from three biological replicates per treatment at 1, 3, 5 and 7 days post treatment (DPT).” left out

[3] = test system: fruit slices of 1-MCP pre-treated pears; assay: Ethylene from slices of 1-MCP pre-treated pears immersed in glyoxylic acid, airtight jar; format: in vivo, pear; settings: immersed 12-24 hours, measured after 8 hours
Protocol: The effect of glyoxylic acid on the restarting of ripening after 1-MCP-mediated arrest was also assayed with fruit that was sliced. Whole unripe pears were pre-treated with 1-MCP according to standard practice. The unripe pre-treated fruit were sliced and subject to glyoxylic acid treatments to assess its ability to induce ripening in the sliced fruit. First, fruit slices were immersed in 0.5 mM and 2.5 mM glyoxylic acid solution for 12-24 hours and placed in an airtight jar. Ethylene levels were measured after 8 hours. […] Slices immersed in the 2.5 mM glyoxylic also produced more (approximately 2-fold more) ethylene than the controls, although the increase in ethylene levels was not as high as for the 0.5 mM treatment.

sliced pear fruit = assay: Ethylene evolved from sliced 1-MCP fruit treated with glyoxylic acid in sealed modified atmosphere bag; format: in vivo
Protocol: Next, a modified protocol was followed to expose fruit slices derived from 1-MCP pre-treated fruit to solutions of glyoxylic acid. Glyoxylic acid solutions ranging from 0.005% (0.675 mM), 0.150% (20.25 mM), 0.5% ([…]), 1% (0.135 M), 2% (0.270 M), 2.5% (0.338 M) and 3% (0.405 M) were prepared either alone or in conjunction with the Nature seal solution, which contains antioxidants that prevent fruit oxidation. 1-MCP fruit was sliced and treated with the 0.005%, 0.150%, 0.5% or 2.5% glyoxylic acid solutions and placed in a modified, sealed atmosphere bag. The amount of evolved ethylene was measured directly from the sealed bag of fruit. […] Finally, the 1-MCP fruit that were sliced and treated with 1%, 2% and 3% glyoxylic acid were evaluated in consumer preference trials in 2014 and 2015.

whole pears = assay: Firmness of whole pears after 24 h immersion in glyoxylic acid solution (penetrometer); format: in vivo, pear; settings: after 6 days
Protocol: In order to ripen whole pear fruit pretreated with 1-MCP, the fruits were treated by immersion in 0 mM, 0.1 mM, 0.25 mM, 0.5 mM glyoxylic acid. In other experiments, the fruits were treated by ambient fogging of fruit with 1 liter of solution of 1% (0.135 M), 2% (0.270 M) and 3% (0.405 M) glyoxylic acid solution (determined with 74 as the molecular weight of glyoxylic acid). The ambient fogging was carried out in a 192,000 cm^3 volume chamber using an ultrasonic humidifier. Various indicators of ripening were assayed thereafter. In a first assay, whole pears pre-treated with 1-MCP were immersed in 0 mM, 0.1 mM, 0.25 mM, or 0.5 mM glyoxylic acid solution for 24 hours. The fruit was assayed for firmness using a penetrometer six days after the immersion treatment. FIG. 7 graphically illustrates the reduction in firmness (i.e., development of softness) in pear fruit treated with various concentrations of glyoxylic acid. Non-1-MCP treated fruit (light bars) and 1-MCP treated fruit (dark bars) responded differently to glyoxylic acid treatment.

rin tomato fruit = assay: Ripening (visual pigmentation) of rin mutant tomato fruit; format: in vivo; settings: for ripening response (change in pigmentation) of rin tomato fruit: 2% GLA, observed over 14 days; for pigment response in untreated rin fruit on the same branches as treated fruit: GLA injection to a single fruit
[4] = test system: 1-MCP pre-treated fruit (whole pear); assay: Firmness and Brix of 1-MCP pre-treated whole pears after ambient fogging with glyoxylic acid; format: in vivo; settings: 1% (0.135 M) ambient fogging
Protocol: In order to ripen whole pear fruit pretreated with 1-MCP, the fruits were treated by immersion in 0 mM, 0.1 mM, 0.25 mM, 0.5 mM glyoxylic acid. In other experiments, the fruits were treated by ambient fogging of fruit with 1 liter of solution of 1% (0.135 M), 2% (0.270 M) and 3% (0.405 M) glyoxylic acid solution (determined with 74 as the molecular weight of glyoxylic acid). The ambient fogging was carried out in a 192,000 cm^3 volume chamber using an ultrasonic humidifier. Various indicators of ripening were assayed thereafter.
Next, 1-MCP pre-treated fruit were treated with glyoxylic acid using ambient fogging at 0% or 1% (0.135 M) glyoxylic acid. In this experiment, the fruit firmness was measured at two time points—immediately after the fogging treatment and again 8 days later using a penetrometer. […] The fruit were also assessed for ripeness by assaying the Brix values, which are indicative of total soluble solids and also serve as an industry standard for fruit ripening. […] All these experiments have been repeated multiple times and have been consistent with the above data.

Mango = Mango fruit flesh firmness after atomized GLA exposure (penetrometer); format: in vivo; settings: 3% GLA, 16 hours, readings confounded by variable rinds
Protocol: as §1, §2
as §3, with “Firmness measurements were taken from three biological replicates per treatment at 1, 3, 5 and 7 days post treatment (DPT).” left out

[5] = test system: whole pears with or without 1-MCP pre-treatment; assay: Internal ethylene of pears after ambient fogging with glyoxylic acid (gas extraction, GC/MS); format: in vivo, pear; settings: both 1-MCP pre-treated and non-1-MCP pre-treated fruit
Protocol: As an additional confirmation of glyoxylic acid-mediated ripening of 1-MCP pre-treated pears, the internal ethylene of the fruit was also measured. First, the whole fruit with or without 1-MCP pre-treatment were treated with 0.5% ([…]) or 1% (0.135 M) glyoxylic acid using ambient fogging. Thereafter, one quarter of four separate pears from each treatment was sliced into four pieces and placed into a gas extraction chamber. A vacuum was created using an aspirator. For each experiment, 0.5 ml of extracted ethylene gas was injected into the GC/MS in three replicates. Measurements of ethylene in ppm were calculated using a previously established standard curve.

[Cl-].[Cl-].[Co+2] [CoCl2, reference compound]
visible ripening response ([1]; in vivo): no visible ripening response

S [RC-1, hydrogen sulfide]
evolution of ethylene (Bartlett pears; 0.5 mM H2S): clear and steady increase in the evolution of ethylene
level of respiration (evolved CO2) (Bartlett pears; 0.5 mM H2S (RC-1), 5 days monitoring): positive trend
level of respiration (evolved CO2) (Bartlett pears; 0.5 mM H2S (RC-1), 5 days monitoring, listed as H2S): generally positive trend
level of ethylene versus control fruit (Bartlett pears; 2.5 mM H2S): indistinguishable and very low
level of respiration (evolved CO2) (Bartlett pears; 2.5 mM H2S, perhaps a stress response): higher levels of carbon dioxide
time post-treatment at which ethylene evolution is observed (Bartlett pears; RC-1, pear fruit blocked for ripening by 1-MCP): 48 h

O=CC(=O)O [glyoxylic acid]
percentage of terminal ripened firmness achieved (Haas avocado; one day post treatment (control 31%)): 81%
percentage of terminal ripened firmness achieved (Haas avocado; three days post treatment (control 96%)): 92%
ripening as measured by fruit flesh firmness versus non-GLA control (Haas avocado; 3% GLA solution, atomized, 16 hours, listed as GLA): significant acceleration of ripening; also recorded: evidence for accelerated ripening
ripening response (pigmentation green to red) versus deionized water control [1]: accelerated ripening
ripening response (pigmentation green to red) versus deionized water control ([1]; listed as GLA): accelerated ripening response
ripening as measured by pear fruit flesh firmness [2]: trend towards accelerated ripening
ethylene generated relative to control slices ([3]; 0.5 mM): 5 fold
ethylene generated relative to control slices ([3]; 2.5 mM): approximately 2 fold
evolution of ethylene from sliced fruit versus control (sliced pear fruit; 2.5% (337 mM) solution, sealed atmosphere bag): enhanced the evolution of ethylene; also recorded: significantly increased ethylene production
ethylene evolved versus control fruit (sliced pear fruit; some of a range of concentrations (0.005%-2.5%)): releases more ethylene than the control fruit
firmness effect in 1-MCP treated fruit (whole pears; 0.5 mM immersion solution): especially enhanced over control
firmness of non-1-MCP treated fruit (whole pears; 0.5 mM): reduction in firmness is evident
firmness of 1-MCP treated fruit (whole pears; all concentrations (0.1, 0.25, 0.5 mM), 24 h immersion, compared to non-1-MCP treated fruit): drop in firmness
ripening response (change in pigmentation) of rin tomato fruit (rin tomato fruit): change in pigmentation resembling that achieved at breaker stage in wild type tomatoes
ripening response (change in pigmentation) of rin tomato fruit (rin tomato fruit; listed as GLA): enables ripening of rin mutant fruit
pigment response in untreated rin fruit on the same branches as treated fruit (rin tomato fruit): systemic
pigment response in untreated rin fruit on the same branches as treated fruit (rin tomato fruit; listed as GLA): Systemic pigmentation response
time at which ethylene evolution is observed (Bartlett pears; 0.25 mM RC-2, pear fruit blocked for ripening by 1-MCP): ≤ 16 h
evolution of ethylene (Bartlett pears; 0.25 mM glyoxylic acid (RC-2)): clear and steady increase in the evolution of ethylene
level of ethylene versus control fruit (Bartlett pears; 1, 2.5 and 10 mM glyoxylic acid): indistinguishable and very low
maturation in pears after 1-MCP treatment (Bartlett pears; as little as 0.25 mM): induces maturation
fruit firmness ([4]; 8 days): 2 lbf
Brix values (total soluble solids) ([4]; 8 days post fogging): significantly increased brix values
ripening as measured by fruit flesh firmness (Mango): trend towards accelerated ripening
internal ethylene evolution ([5]; 0.5% (0.6.75 mM) ambient fogging): effective in inducing the evolution of ethylene
internal ethylene evolution ([5]; 1% (0.135 M) ambient fogging): effective in inducing the evolution of ethylene
